{"source": "ChEMBL document CHEMBL5357002", "about": "“Heterodimers of Aromadendrane Sesquiterpenoid with Benzoquinone from the Chinese Liverwort Mylia nuda” (J Nat Prod, 2024)", "key": {"SH-SY5Y [1]": {"tested_on": "SH-SY5Y", "assay": "Cytoprotective activity against glutamic acid induced injury in human SH-SY5Y cells assessed as increase in cell viability at 10 to 20 uM by MTT assay", "format": "functional, cell-based", "settings": "dose 10-20 µM"}, "SH-SY5Y [2]": {"tested_on": "SH-SY5Y", "assay": "Induction of apoptosis in glutamic acid induced human SH-SY5Y cells assessed as necrotic cells incubated for 24 hrs by Annexin V-FITC/PI staining based flow cytometry analysis (reference value: 3.64%)", "format": "functional"}, "SH-SY5Y [3]": {"tested_on": "SH-SY5Y", "assay": "Induction of apoptosis in glutamic acid induced human SH-SY5Y cells assessed as viable cells incubated for 24 hrs by Annexin V-FITC/PI staining based flow cytometry analysis (reference value: 61.55%)", "format": "functional"}, "[4]": {"assay": "Induction of apoptosis in human SH-SY5Y cells assessed as viable cells incubated for 24 hrs by Annexin V-FITC/PI staining based flow cytometry analysis (reference value: 99.87%)", "format": "toxicity, cell-based", "settings": "read-out: Activity"}, "SH-SY5Y [5]": {"tested_on": "SH-SY5Y", "assay": "Induction of apoptosis in human SH-SY5Y cells assessed as late apoptotic cells incubated for 24 hrs by Annexin V-FITC/PI staining based flow cytometry analysis (reference value: 0.04%)", "format": "toxicity, cell-based"}, "SH-SY5Y [6]": {"tested_on": "SH-SY5Y", "assay": "Induction of apoptosis in glutamic acid induced human SH-SY5Y cells assessed as late apoptotic cells incubated for 24 hrs by Annexin V-FITC/PI staining based flow cytometry analysis (reference value: 0.21%)", "format": "functional"}, "SH-SY5Y [7]": {"tested_on": "SH-SY5Y", "assay": "Induction of apoptosis in human SH-SY5Y cells assessed as necrotic cells incubated for 24 hrs by Annexin V-FITC/PI staining based flow cytometry analysis (reference value: 0.06%)", "format": "toxicity, cell-based"}, "SH-SY5Y [8]": {"tested_on": "SH-SY5Y", "assay": "Cytoprotective activity against glutamic acid induced injury in human SH-SY5Y cells assessed as improvement in cell morphology at 10 uM by immunofluorescence analysis", "format": "functional, cell-based"}, "SH-SY5Y [9]": {"tested_on": "SH-SY5Y", "assay": "Induction of apoptosis in human SH-SY5Y cells assessed as early apoptotic cells incubated for 24 hrs by Annexin V-FITC/PI staining based based flow cytometry analysis (reference value: 0.03%)", "format": "toxicity, cell-based"}, "SH-SY5Y [10]": {"tested_on": "SH-SY5Y", "assay": "Induction of apoptosis in glutamic acid induced human SH-SY5Y cells assessed as early apoptotic cells incubated for 24 hrs by Annexin V-FITC/PI staining based flow cytometry analysis (reference value: 34.60%)", "format": "functional"}, "SH-SY5Y [11]": {"tested_on": "SH-SY5Y", "assay": "Cytoprotective activity against glutamic acid induced injury in human SH-SY5Y cells assessed as decrease in ROS level at 10 uM by DCFH-DA staining based flow cytometry", "format": "functional, cell-based"}}, "note": "Activity calls are given as the source filed them. The rule behind the calls is not given here.", "data": [{"smiles": "COc1ccc(OC2=C(C)C(=O)[C@H]3[C@@H](C2=O)[C@@H]2C[C@H]3C(C)=C2[C@@H]2[C@H](CCC(C)=O)C2(C)C)cc1C", "values": [{"measurement": "Activity", "setting": "SH-SY5Y [1]", "value": "Active"}]}, {"smiles": "COc1ccc(OC2=C(C)C(=O)[C@H]3[C@@H](C2=O)[C@@H]2C[C@H]3C([C@@H]3[C@H](CCC(C)=O)C3(C)C)=C2C)cc1C", "values": [{"measurement": "Activity", "setting": "SH-SY5Y [1]", "value": "Active"}]}, {"smiles": "COc1ccc(OC2=C(C)C(=O)[C@H]3[C@@H](C2=O)[C@@H]2C[C@@]3(C)C([C@@H]3[C@H](CCC(C)=O)C3(C)C)=C2C)cc1C", "values": [{"measurement": "Activity", "setting": "SH-SY5Y [1]", "value": "Active"}]}, {"smiles": "COc1ccc(OC2=C(C)C(=O)[C@@H]3[C@H](C2=O)[C@H]2C[C@@H]3C([C@@H]3[C@H](CCC(C)=O)C3(C)C)=C2C)cc1C", "values": [{"measurement": "Activity", "setting": "SH-SY5Y [1]", "value": "Active"}]}, {"smiles": "COc1ccc(OC2=C(C)C(=O)[C@@H]3[C@H](C2=O)[C@H]2C[C@@H]3C(C)=C2[C@@H]2[C@H](CCC(C)=O)C2(C)C)cc1C", "values": [{"measurement": "Activity", "setting": "SH-SY5Y [2]", "value": 4.49, "unit": "%"}, {"measurement": "Activity", "setting": "SH-SY5Y [3]", "value": 81.11, "unit": "%"}, {"measurement": "viability at 24 h", "setting": "[4]", "value": 96, "unit": "%"}, {"measurement": "Activity", "setting": "SH-SY5Y [5]", "value": 0.08, "unit": "%"}, {"measurement": "Activity", "setting": "SH-SY5Y [6]", "value": 0.17, "unit": "%"}, {"measurement": "Activity", "setting": "SH-SY5Y [7]", "value": 3.59, "unit": "%"}, {"measurement": "Activity", "setting": "SH-SY5Y [8]", "value": "Active"}, {"measurement": "Activity", "setting": "SH-SY5Y [9]", "value": 0.39, "unit": "%"}, {"measurement": "Activity", "setting": "SH-SY5Y [10]", "value": 14.23, "unit": "%"}, {"measurement": "Activity", "setting": "SH-SY5Y [11]", "value": "Active"}, {"measurement": "Activity", "setting": "SH-SY5Y [1]", "value": "Active"}]}, {"smiles": "COc1ccc(OC2=C[C@@H]3C(=O)[C@](C)(C2=O)[C@@]2(C)C([C@@H]4[C@H](CCC(C)=O)C4(C)C)=CC[C@@H]32)cc1C", "values": [{"measurement": "Activity", "setting": "SH-SY5Y [1]", "value": "Active"}]}]}
